Values of other authors as cited in US20250356984A1 (priority 2022, published 2025).

Settings: in vivo

## CC(C)c1cccc(C(C)C)c1O [propofol]
  time until target blood concentration is achieved: under a minute
